Measurements published in article PMC5808360, “Neutral Porphyrin Derivative Exerts Anticancer Activity by Targeting Cellular Topoisomerase I (Top1) and Promotes Apoptotic Cell Death without Stabilizing Top1-DNA Cleavage Complexes” (Journal of Medicinal Chemistry, 2017).

How the values were obtained:
[1] = molecular target: T1, cellular Top1 in MCF7 cells (Homo sapiens, UniProt P11387); assay: Western blot of Top1 in whole cell extracts of treated MCF7 cells; assay type: cell-based; conditions: 10 μM, indicated times
T1 construct: endogenous in cells; host or cells: MCF7 cells
T1 sequence (P11387 2-765 limits assumed): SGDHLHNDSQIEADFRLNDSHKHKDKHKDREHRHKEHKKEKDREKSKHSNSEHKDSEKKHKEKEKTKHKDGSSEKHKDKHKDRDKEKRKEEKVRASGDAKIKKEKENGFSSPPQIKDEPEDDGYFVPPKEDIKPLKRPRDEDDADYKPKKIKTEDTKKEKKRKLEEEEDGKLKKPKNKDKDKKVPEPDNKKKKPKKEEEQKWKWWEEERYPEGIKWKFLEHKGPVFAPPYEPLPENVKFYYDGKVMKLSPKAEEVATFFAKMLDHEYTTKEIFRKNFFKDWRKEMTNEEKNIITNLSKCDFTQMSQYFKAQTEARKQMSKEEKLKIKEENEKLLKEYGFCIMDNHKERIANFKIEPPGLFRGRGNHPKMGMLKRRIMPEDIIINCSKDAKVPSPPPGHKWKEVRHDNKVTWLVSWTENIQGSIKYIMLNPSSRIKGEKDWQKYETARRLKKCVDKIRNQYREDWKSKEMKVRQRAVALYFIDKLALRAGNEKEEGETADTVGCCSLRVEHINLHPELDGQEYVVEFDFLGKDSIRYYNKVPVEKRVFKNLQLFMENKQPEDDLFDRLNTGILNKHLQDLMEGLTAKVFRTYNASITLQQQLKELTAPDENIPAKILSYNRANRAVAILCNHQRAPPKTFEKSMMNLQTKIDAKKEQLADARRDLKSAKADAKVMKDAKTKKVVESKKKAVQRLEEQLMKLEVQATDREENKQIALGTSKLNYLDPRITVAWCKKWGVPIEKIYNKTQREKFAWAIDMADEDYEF
Description: Because compound 8 binds with free Top1 (Figure 3) and inhibits Top1cc formation in live cells (Figure 2E), we examined the impact of compound 8 on endogenous Top1. Cellular lysates were prepared from MCF7 cells treated with compound 8 for indicated times and were analyzed by Western blotting. […] Because proteasome has been implicated for Top1 degradation,[7],[9],[45] we used proteasome specific inhibitor (MG132) to investigate Top1 proteolysis in compound 8 treated cells.
Preparation of whole cell extracts from MCF7 cells and immunoblotting were carried out as described.[6],[40],[41] Immunoreactivity was detected using ECL chemiluminescence reaction (Amersham) under ChemiDoc MP system (Bio-Rad, USA).

Top1cc in MCF7 cells = molecular target: T2, Top1cc in MCF7 cells (Homo sapiens, UniProt P11387); assay: Immuno complex of enzyme (ICE) bioassay; assay type: cell-based
T2 construct: endogenous in cells; host or cells: MCF7 cells
T2 sequence (P11387 2-765 limits assumed): T1 sequence (P11387 2-765 limits assumed)
Description: Because compound 8 stimulates apoptosis (Figure 4C and Figure 5B), we examined accumulation of apoptotic Top1-DNA complexes in compound 8 treated cells (Figure 4D) by ICE bioassays.[15],[16] Top1cc related to apoptosis is due to secondary DNA modifications and is independent from direct Top1-drug interaction.[15]−[17] […] Therefore, proteasome mediated degradation of Top1 triggers compound 8 induced apoptosis without stabilizing apoptotic Top1-DNA covalent complexes. […] Genomic DNA was prepared and was briefly sonicated. Varying concentrations of DNA were spotted onto nitrocellulose membrane (Millipore, USA) using a slot-blot vacuum system (Biorad, USA). Immunoblotting was carried out with antihuman Top1 antibodies as described.[41]

## CN(C)c1ccc(-c2c3nc(c(-c4ccc(N(C)C)cc4)c4ccc([nH]4)c(-c4ccc(C(=O)O)cc4)c4nc(c(-c5ccc(C(=O)O)cc5)c5ccc2[nH]5)C=C4)C=C3)cc1 [Compound 8, 5,10-Bis(4-carboxyphenyl)-15,20-bis(4-dimethylaminophenyl)porphyrin]
[1]
  Top1 signal in Western blot: time dependent depletion of Top1 signal
Top1cc in MCF7 cells; 20 μM, 12 h
  Top1 in DNA-containing fractions (apoptotic Top1cc): absence of Top1 in the DNA-containing fractions
Top1cc in MCF7 cells; CPT 10 μM 6 h before addition of compound 8 20 μM for 6 h
  Effect on CPT-induced cellular Top1-DNA complexes: abrogates CPT-induced cellular Top1-DNA complexes
